In one assay the target is T1, GRK2 (Homo sapiens, UniProt P25098).
T1 construct: purchased SignalChem A14-10G
T1 sequence (P25098 1-689): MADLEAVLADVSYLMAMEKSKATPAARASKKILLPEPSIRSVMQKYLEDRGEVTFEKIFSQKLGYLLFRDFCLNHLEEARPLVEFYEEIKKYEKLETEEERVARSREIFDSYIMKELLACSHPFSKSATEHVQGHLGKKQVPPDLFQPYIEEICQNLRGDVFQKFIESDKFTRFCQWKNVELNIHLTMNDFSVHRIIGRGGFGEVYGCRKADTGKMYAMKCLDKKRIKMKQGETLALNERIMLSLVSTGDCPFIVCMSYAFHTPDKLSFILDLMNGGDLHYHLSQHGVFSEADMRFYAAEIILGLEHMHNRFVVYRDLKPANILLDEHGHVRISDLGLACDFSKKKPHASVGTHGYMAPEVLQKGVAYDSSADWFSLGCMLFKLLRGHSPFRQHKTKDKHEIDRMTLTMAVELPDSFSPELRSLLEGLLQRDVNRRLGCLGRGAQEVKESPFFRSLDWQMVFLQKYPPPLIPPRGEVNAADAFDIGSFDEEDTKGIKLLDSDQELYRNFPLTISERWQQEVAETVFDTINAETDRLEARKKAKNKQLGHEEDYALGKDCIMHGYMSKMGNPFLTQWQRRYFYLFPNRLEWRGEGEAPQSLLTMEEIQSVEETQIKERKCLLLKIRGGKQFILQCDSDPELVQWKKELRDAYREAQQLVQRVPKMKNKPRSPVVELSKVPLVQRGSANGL
Kind of assay: ADPGlo GRK2 Inhibition Assay (Example 8). It is filed as biochemical. Conditions: Enzyme Assay A, ADPGlo (Example 8); read-out: A: Enzymatic GRK2: IC50 (nM) (Example 8). The essentials:
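GRK2 (15 nM 2× enzyme solution) was preincubated 15 min with compound, then reacted 180 min at room temperature with 2× mix of 20 μM ATP plus GRKtide in HEPES pH 7.5, MgCl2, Tween-20, DTT. ADP was detected by ADP-Glo luminescence. Percent inhibition was normalised to enzyme and no-enzyme controls, with dose-response curves from threefold dilutions starting at 100 μM.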
On the technique in general: ADP-Glo turns the ADP formed in a reaction into a luminescent signal.

Assay [1] relates to PAXF1657 control empty vector cell line. The assay can be described thus: 7-day proliferation assay, PAXF1657 control empty vector cell line (Example 9). The class given is cell-based. Conditions: 168 h; Cell Line: PAXF1657 empty vector (EV) cell line; 7-day; read-out: C: 7-day proliferation assay: IC50 GeoMean. The essentials: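 PAXF1657 pancreatic cancer cells (GRK2-overexpressing vs empty vector; CRISPR GRK2 knockout vs non-targeting control) were seeded at 500 cells/well in RPMI1640/10% FBS, then given a 10-point series, 30 μM-0.0002 μM in 0.3% DMSO. Medium and compound were refreshed after 3 days; CellTiter-Glo luminescence was read at day 7.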

pIC50: −log10 of the molar value.

Regarding `Cn1c(CNc2cccc(C(=O)NCc3cccc4c3OCCO4)c2)nnc1-c1ccncn1`, the half-inhibitory concentration (IC50) on GRK2 came to 15 nM. Further, the pIC50 in assay [1] is 5.68.
Turning to `Cc1ccnc(CNC(=O)c2cccc(NCc3nnc(-c4ccncn4)n3C)c2)c1`, on GRK2, the half-inhibitory concentration (IC50) came out at 430 nM. In addition, in assay [1], the pIC50 was below 5.00.
Turning to `Cn1c(CNc2cccc(C(=O)NCc3cccnc3)c2)nnc1-c1ccncn1`, at GRK2, the IC50 was determined as 540 nM. Moreover, in assay [1], the pIC50 is below 5.00.
For the molecule `CC(NC(=O)c1cccc(NCc2nnc(-c3ccncn3)n2C)c1)c1cnn(C)c1` (stereo not drawn), on GRK2, the half-maximal inhibitory concentration (IC50) was determined as 17 nM. In addition, in assay [1], the pIC50 was 6.72.
`Cn1c(CNc2cccc(C(=O)NCc3cccc4ncccc34)c2)nnc1-c1ccncn1`: on GRK2, the IC50 came out at 11 nM. For the same molecule, in assay [1], the pIC50 was below 5.00.
Regarding `Cc1nn(C)c(C)c1CNC(=O)c1cccc(NCc2nnc(-c3ccncn3)n2C)c1`, at GRK2, the IC50 is 26 nM. Also, in assay [1], the pIC50 was below 5.00.
Take `Cc1noc(C)c1CNC(=O)c1cccc(NCc2nnc(-c3ccncn3)n2C)c1`: the 50% inhibitory concentration (IC50) at GRK2 is 19 nM. In addition, the pIC50 in assay [1] was 6.76.
Taken in the same sequence, the figures for `Cc1nc(C)c(CNC(=O)c2cccc(NCc3nnc(-c4ccncn4)n3C)c2)s1` were 26 nM and below 5.00.
In the case of `CC(NC(=O)c1cccc(NCc2nnc(-c3ccncn3)n2C)c1)c1ccn(C)n1` (stereo not drawn), the IC50 at GRK2 worked out at 27 nM. Moreover, in assay [1], the pIC50 is 5.67.
On to `COc1cc(F)cc(CNC(=O)c2cccc(NCc3nnc(-c4ccncn4)n3C)c2)c1`, for which, at GRK2, the IC50 is 54 nM. Also, the pIC50 in assay [1] is below 5.00.
In the case of `Cc1ccccc1C(CO)NC(=O)c1cccc(NCc2nnc(-c3ccncn3)n2C)c1` (stereo not drawn), the IC50 on GRK2 stood at 33 nM. For the same molecule, the pIC50 in assay [1] was 5.06.
`O=C(NCc1cn[nH]c1C(F)F)c1cccc(NCc2nnc(-c3ccncc3)[nH]2)c1`: at GRK2, the IC50 is 19 nM. The pIC50 in assay [1] is below 5.00.
Regarding `Cc1nc(C)c(CNC(=O)c2cccc(NCc3nnc(-c4ccncc4)[nH]3)c2)nc1C`, the IC50 at GRK2 came out at 28 nM. Besides, in assay [1], the pIC50 is below 5.00.
On to `Cc1ncccc1CNC(=O)c1cccc(NCc2nnc(-c3ccncc3)[nH]2)c1`, for which the half-maximal inhibitory concentration (IC50) on GRK2 is 19 nM. For the same molecule, the pIC50 in assay [1] is below 5.00.
Taken in the same sequence, the figures for `O=C(NCc1nccc(C(F)F)n1)c1cccc(NCc2nnc(-c3ccncc3)[nH]2)c1` were 27 nM and below 5.00.
`CCn1ncc(Cl)c1CNC(=O)c1cccc(NCc2nnc(-c3ccncc3)[nH]2)c1`: the IC50 on GRK2 was 12 nM. Also, the pIC50 in assay [1] was 6.25.
In the same order, the values of `O=C(NCc1ccccc1-n1cncn1)c1cccc(NCc2nnc(-c3ccncc3)[nH]2)c1` are 19 nM and below 5.00.
`COc1cnccc1CNC(=O)c1cccc(NCc2nnc(-c3ccncc3)[nH]2)c1`: at GRK2, the IC50 turned out to be 26 nM. Further, the pIC50 in assay [1] is below 5.00.
Consider `O=C(NC1(c2ccncn2)CC1)c1cccc(NCc2nnc(-c3ccncc3)[nH]2)c1`, for which the IC50 on GRK2 came out at 13 nM. For the same molecule, the pIC50 in assay [1] is below 5.00.
Consider `CC(NC(=O)c1cccc(NCc2nnc(-c3ccncc3)[nH]2)c1)c1cnco1` (stereo not drawn), for which the IC50 on GRK2 was found to be 24 nM. Further, the pIC50 in assay [1] was below 5.00.
`Cc1cnc(C(C)NC(=O)c2cccc(NCc3nnc(-c4ccncc4)[nH]3)c2)o1` (stereo not drawn): at GRK2, the IC50 was 16 nM. In addition, the pIC50 in assay [1] was below 5.00.
Regarding `O=C(NCc1nnc2n1CCCC2)c1cccc(NCc2nnc(-c3ccncc3)[nH]2)c1`, the IC50 on GRK2 was 48 nM. Further, in assay [1], the pIC50 was below 5.00.
Turning to `O=C(NCc1ccncc1)c1cccc(NCc2nnc(-c3ccncc3)[nH]2)c1`, the IC50 on GRK2 was determined as 12 nM. For the same molecule, the pIC50 in assay [1] was 5.24.
Taken in the same sequence, the figures for `CCc1nc(CNC(=O)c2cccc(NCc3nnc(-c4ccncc4)[nH]3)c2)c(C)o1` were 8.4 nM and 6.06.
Regarding `O=C(NCc1ncccn1)c1cccc(NCc2nnc(-c3ccncc3)[nH]2)c1`, the IC50 at GRK2 worked out at 17 nM. Moreover, the pIC50 in assay [1] was below 5.00.
Turning to `O=C(NCc1ncco1)c1cccc(NCc2nnc(-c3ccncc3)[nH]2)c1`, the IC50 at GRK2 worked out at 25 nM. Further, in assay [1], the pIC50 was below 5.00.
In the case of `CCn1nc(C)c(CNC(=O)c2cccc(NCc3nnc(-c4ccncc4)[nH]3)c2)n1`, the IC50 on GRK2 was 18 nM. Further, the pIC50 in assay [1] is 5.51.
Taken in the same sequence, the figures for `O=C(NCc1nncn1C1CC1)c1cccc(NCc2nnc(-c3ccncc3)[nH]2)c1` were 45 nM and below 5.00.
Take `COC[C@H](NC(=O)c1cccc(NCc2nnc(-c3ccncc3)[nH]2)c1)c1ccccn1`: the IC50 on GRK2 was 11 nM. Moreover, in assay [1], the pIC50 is 6.39.
Taken in the same sequence, the figures for `Cc1nnc(CNC(=O)c2cccc(NCc3nnc(-c4ccncc4)[nH]3)c2)n1C1CC1` were 19 nM and below 5.00.
On to `O=C(NCc1cncc(F)c1)c1cccc(NCc2nnc(-c3ccncc3)[nH]2)c1`, for which the IC50 on GRK2 came out at 17 nM. Moreover, in assay [1], the pIC50 is below 5.00.
On to `O=C(NCc1cncnc1)c1cccc(NCc2nnc(-c3ccncc3)[nH]2)c1`, for which, on GRK2, the IC50 is 34 nM. In addition, the pIC50 in assay [1] is below 5.00.
Consider `Cc1noc(C)c1CNC(=O)c1cccc(NCc2nnc(-c3ccncc3)[nH]2)c1`, for which, at GRK2, the IC50 stood at 24 nM. Besides, the pIC50 in assay [1] was below 5.00.
Taken in the same sequence, the figures for `CC(C)n1cnnc1CNC(=O)c1cccc(NCc2nnc(-c3ccncc3)[nH]2)c1` were 210 nM and below 5.00.
As to `CC(NC(=O)c1cccc(NCc2nnc(-c3ccncc3)[nH]2)c1)c1ccon1` (stereo not drawn), on GRK2, the IC50 was found to be 20 nM. The pIC50 in assay [1] was below 5.00.
Taken in the same sequence, the figures for `CC1CC(NC(=O)c2cccc(NCc3nnc(-c4ccncc4)[nH]3)c2)c2ncnn21` (stereo not drawn) were 37 nM and below 5.00.
In the case of `O=C(NC1CCCn2ncnc21)c1cccc(NCc2nnc(-c3ccncc3)[nH]2)c1` (stereo not drawn), the IC50 at GRK2 was determined as 20 nM. Besides, the pIC50 in assay [1] is below 5.00.
For `O=C(NC1CCCc2nccnc21)c1cccc(NCc2nnc(-c3ccncc3)[nH]2)c1` (stereo not drawn), at GRK2, the IC50 was 12 nM. Besides, the pIC50 in assay [1] was 6.13.
Take `O=C(NC(CO)c1ccccn1)c1cccc(NCc2nnc(-c3ccncc3)[nH]2)c1` (stereo not drawn): the IC50 at GRK2 was determined as 20 nM. Also, in assay [1], the pIC50 is below 5.00.
In the same order, the values of `Cc1ocnc1CNC(=O)c1cccc(NCc2nnc(-c3ccncc3)[nH]2)c1` are 8.3 nM and below 5.12.
Taken in the same sequence, the figures for `O=C(NCc1cnccn1)c1cccc(NCc2nnc(-c3ccncc3)[nH]2)c1` were 25 nM and below 5.00.
As for `Cn1c(CNc2cccc(C(=O)N[C@@H](CO)c3cc(F)ccc3F)c2)nnc1-c1ccncn1`, the IC50 on GRK2 was determined as 10 nM. Also, the pIC50 in assay [1] was below 4.52.
With `Cn1c(CNc2cccc(C(=O)NC(CO)c3ccc(F)cc3)c2)nnc1-c1ccncn1` (stereo not drawn), the half-inhibitory concentration (IC50) at GRK2 was determined as 14 nM. For the same molecule, the pIC50 in assay [1] is below 4.52.
With `Cc1cncc(CNC(=O)c2cccc(NCc3nnc(-c4ccncn4)n3C)c2)c1`, the IC50 at GRK2 amounted to 15 nM. Further, the pIC50 in assay [1] is below 4.52.
With `Cc1ccn2c(CNC(=O)c3cccc(NCc4nnc(-c5ccncn5)n4C)c3)nnc2c1`, the IC50 at GRK2 is 14 nM. Moreover, in assay [1], the pIC50 was below 4.52.
Regarding `CC(NC(=O)c1cccc(NCc2nnc(-c3ccncn3)n2C)c1)c1ccncc1` (stereo not drawn), on GRK2, the IC50 came to 11 nM. Besides, the pIC50 in assay [1] was 5.67.
For the molecule `Cc1nn(C)cc1CNC(=O)c1cccc(NCc2nnc(-c3ccncn3)n2C)c1`, the IC50 at GRK2 came out at 19 nM. In addition, the pIC50 in assay [1] is 5.21.
With `Cc1cc(CNC(=O)c2cccc(NCc3nnc(-c4ccncn4)n3C)c2)n(C)n1`, the IC50 on GRK2 came to 17 nM. Moreover, the pIC50 in assay [1] was 5.38.

For orientation: IC50 means the concentration at which inhibition is half-maximal.

For the origin of these results see patent US20230009608A1, “GRK2 INHIBITORS AND USES THEREOF” (Cygnal Therapeutics, Inc., priority 2020, published 2023).
